{"source": "ChEMBL document CHEMBL6096723", "about": "“Discovery of novel capsaicin analogs as TRPV1 inhibitors for the treatment of idiopathic pulmonary fibrosis” (Eur J Med Chem, 2025)", "key": {"[1]": {"test": "AUMC(0 to infinity) in Sprague-Dawley rat at 50 mg/kg, ip measured upto 4 hrs by UPLC-MS/MS analysis", "type": "ADME, organism-based", "conditions": "in vivo"}, "[2]": {"test": "AUC(0 to t) in Sprague-Dawley rat at 50 mg/kg, po measured upto 4 hrs by UPLC-MS/MS analysis", "type": "ADME, organism-based", "conditions": "in vivo"}, "[3]": {"test": "Acute toxicity in Kunming female mouse assessed as Total bilirubin (T-Bil) level at 180 mg/kg, ip measured after 14 days (reference value: 10.79 micromol/L)", "type": "organism-based", "conditions": "in vivo, 336 h, time 14 day"}, "Mus musculus [4]": {"test_system": "Mus musculus", "test": "Anti-pulmonary fibrotic activity against bleomycin-induced pulmonary fibrosis mouse model assessed as inhibition of Smad3 phosphorylation in lung tissue at 10 to 20 mg/kg, ip administered every alternative day for 8 to 21 days after modeling by immunohistochemical staining based assay", "type": "functional, organism-based", "conditions": "dose 10-20 mg/kg, time 8-21 day"}, "Mus musculus [5]": {"test_system": "Mus musculus", "test": "Anti-fibrotic activity against bleomycin-induced pulmonary fibrosis mouse model assessed as increase in forced vital capacity (FVC) at 10 to 20 mg/kg, ip administered every alternative day for 8 to 21 days after modeling", "type": "functional, organism-based", "conditions": "dose 10-20 mg/kg, time 8-21 day"}, "[6]": {"test": "Acute toxicity in Kunming female mouse assessed as Alanine aminotransferase (ALT) level at 180 mg/kg, ip measured after 14 days (reference value: 33.7 U/L)", "type": "organism-based", "conditions": "in vivo, 336 h, time 14 day"}, "[7]": {"test": "MRT(0 to t) in Sprague-Dawley rat at 50 mg/kg, iv measured upto 4 hrs by UPLC-MS/MS analysis", "type": "ADME, organism-based", "conditions": "in vivo"}, "[8]": {"test": "Acute toxicity in Kunming male mouse assessed as Direct bilirubin (D-Bil) level at 180 mg/kg, ip measured after 14 days (reference value: 6.21 micromol/L)", "type": "organism-based", "conditions": "in vivo, 336 h, time 14 day"}, "[9]": {"test": "Clearance in Sprague-Dawley rat at 50 mg/kg, iv measured upto 4 hrs by UPLC-MS/MS analysis", "type": "ADME, organism-based", "conditions": "in vivo"}, "[10]": {"test": "Cmax in Sprague-Dawley rat at 50 mg/kg, po measured upto 4 hrs by UPLC-MS/MS analysis", "type": "ADME, organism-based", "conditions": "in vivo"}, "[11]": {"test": "Acute toxicity in Kunming mouse assessed as organ lesions in heart at 180 mg/kg, ip measured after 14 days by H and E staining based assay", "type": "organism-based", "conditions": "in vivo, 336 h, time 14 day"}, "[12]": {"test": "AUMC(0 to infinity) in Sprague-Dawley rat at 50 mg/kg, iv measured upto 4 hrs by UPLC-MS/MS analysis", "type": "ADME, organism-based", "conditions": "in vivo"}, "[13]": {"test": "Acute toxicity in Kunming male mouse assessed as Aspartate aminotransferase (AST) level at 180 mg/kg, ip measured after 14 days (reference value: 116.7 U/L)", "type": "organism-based", "conditions": "in vivo, 336 h, time 14 day"}, "Rattus norvegicus [14]": {"test_system": "Rattus norvegicus", "test": "Cz in Sprague-Dawley rat at 50 mg/kg, ip measured upto 4 hrs by UPLC-MS/MS analysis", "type": "ADME, organism-based", "conditions": "in vivo"}, "[15]": {"test": "AUC(0 to infinity) in Sprague-Dawley rat at 50 mg/kg, iv measured upto 4 hrs by UPLC-MS/MS analysis", "type": "ADME, organism-based", "conditions": "in vivo"}, "Mus musculus [16]": {"test_system": "Mus musculus", "test": "Anti-fibrotic activity against bleomycin-induced pulmonary fibrosis mouse model assessed as increase in survival of mouse at 10 to 20 mg/kg, ip administered every alternative day for 8 to 21 days after modeling", "type": "functional, organism-based", "conditions": "dose 10-20 mg/kg, time 8-21 day"}, "[17]": {"test": "MRT(0 to t) in Sprague-Dawley rat at 50 mg/kg, po measured upto 4 hrs by UPLC-MS/MS analysis", "type": "ADME, organism-based", "conditions": "in vivo"}, "[18]": {"target": "Transient receptor potential cation channel subfamily V member 1 (Homo sapiens) (UniProt Q8NER1)", "sequence (Q8NER1 whole entry)": "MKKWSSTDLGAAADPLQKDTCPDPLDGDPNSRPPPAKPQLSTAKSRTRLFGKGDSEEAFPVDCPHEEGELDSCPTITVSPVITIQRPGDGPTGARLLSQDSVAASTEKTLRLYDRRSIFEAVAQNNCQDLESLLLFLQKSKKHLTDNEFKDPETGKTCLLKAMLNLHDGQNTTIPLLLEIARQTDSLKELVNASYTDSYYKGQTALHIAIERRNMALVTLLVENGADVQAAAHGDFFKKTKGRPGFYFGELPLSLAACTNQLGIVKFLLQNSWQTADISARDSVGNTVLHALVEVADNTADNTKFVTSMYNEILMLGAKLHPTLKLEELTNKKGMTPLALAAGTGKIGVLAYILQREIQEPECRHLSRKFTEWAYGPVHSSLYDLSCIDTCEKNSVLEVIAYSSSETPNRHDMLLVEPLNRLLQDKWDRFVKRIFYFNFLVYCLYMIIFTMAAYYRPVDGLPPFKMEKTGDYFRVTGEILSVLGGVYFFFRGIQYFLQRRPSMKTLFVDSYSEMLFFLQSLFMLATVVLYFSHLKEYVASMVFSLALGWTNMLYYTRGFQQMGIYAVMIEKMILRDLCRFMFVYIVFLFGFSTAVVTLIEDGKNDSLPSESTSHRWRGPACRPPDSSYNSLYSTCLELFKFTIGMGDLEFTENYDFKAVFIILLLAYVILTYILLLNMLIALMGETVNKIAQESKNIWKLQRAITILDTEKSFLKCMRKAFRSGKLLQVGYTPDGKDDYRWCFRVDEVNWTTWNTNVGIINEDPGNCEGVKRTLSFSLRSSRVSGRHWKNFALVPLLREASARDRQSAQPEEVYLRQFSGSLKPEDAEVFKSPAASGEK", "test": "Inhibition of TRPV1 (unknown origin) overexpressed in HEK-293T cells assessed as reduction in calcium level measured after 24 hrs by Fluo-4 calcium ion detection kit", "type": "cell-based"}, "NIH3T3 [19]": {"test_system": "NIH3T3", "test": "Inhibition of TGFbeta-induced Smad3 phosphorylation in mouse NIH3T3 cells by Western blot analysis", "type": "functional, cell-based", "conditions": "dose 1-10 µM"}, "Mus musculus [20]": {"test_system": "Mus musculus", "test": "Anti-pulmonary fibrotic activity against bleomycin induced pulmonary fibrosis mouse model assessed as reduction in pulmonary fibrosis lesions at 10 to 20 mg/kg, ip administered every alternative day for 8 to 21 days after modeling", "type": "functional, organism-based", "conditions": "dose 10-20 mg/kg, time 8-21 day"}, "L929": {"test_system": "L929", "test": "Anti-migratory activity in mouse L929 cells assessed as inhibition of TGFbeta1-induced migration at 10 uM measured after 24 hrs by Wound healing assay", "type": "functional, cell-based"}, "[21]": {"test": "Acute toxicity in Kunming mouse assessed as organ lesions in liver at 180 mg/kg, ip measured after 14 days by H and E staining based assay", "type": "organism-based", "conditions": "in vivo, 336 h, time 14 day"}, "NIH3T3 [22]": {"test_system": "NIH3T3", "test": "Inhibition of TGFbeta-induced JNK phosphorylation in mouse NIH3T3 cells at 1 to 10 uM by Western blot analysis", "type": "functional, cell-based", "conditions": "dose 1-10 µM"}, "[23]": {"test": "MRT(0 to infinity) in Sprague-Dawley rat at 50 mg/kg, ip measured upto 4 hrs by UPLC-MS/MS analysis", "type": "ADME, organism-based", "conditions": "in vivo"}, "[24]": {"test": "Acute toxicity in Kunming female mouse assessed as Albumin (ALB) level at 180 mg/kg, ip measured after 14 days (reference value: 35.8 g/L)", "type": "organism-based", "conditions": "in vivo, 336 h, time 14 day"}, "[25]": {"test": "Acute toxicity in Kunming female mouse assessed as Creatinine (CREA) level at 180 mg/kg, ip measured after 14 days (reference value: 15.4 micromol/L)", "type": "organism-based", "conditions": "in vivo, 336 h, time 14 day"}, "[26]": {"test": "AUC(0 to t) in Sprague-Dawley rat at 50 mg/kg, ip measured upto 4 hrs by UPLC-MS/MS analysis", "type": "ADME, organism-based", "conditions": "in vivo"}, "[27]": {"test": "Apparent volume of distribution in Sprague-Dawley rat at 50 mg/kg, ip measured upto 4 hrs by UPLC-MS/MS analysis", "type": "ADME, organism-based", "conditions": "in vivo"}, "[28]": {"test": "Clearance in Sprague-Dawley rat at 50 mg/kg, ip measured upto 4 hrs by UPLC-MS/MS analysis", "type": "ADME, organism-based", "conditions": "in vivo"}, "Rattus norvegicus [29]": {"test_system": "Rattus norvegicus", "test": "Zeta in Sprague-Dawley rat at 50 mg/kg, po measured upto 4 hrs by UPLC-MS/MS analysis", "type": "ADME, organism-based", "conditions": "in vivo"}, "Mus musculus [30]": {"test_system": "Mus musculus", "test": "Anti-pulmonary fibrotic activity against bleomycin-induced pulmonary fibrosis mouse model assessed as reduction in BLM-induced […] expression in lung tissue at 10 to 20 mg/kg, ip administered every alternative day for 8 to 21 days after modeling", "type": "functional, organism-based", "conditions": "dose 10-20 mg/kg, time 8-21 day"}, "[31]": {"test": "AUC(0 to t) in Sprague-Dawley rat at 50 mg/kg, iv measured upto 4 hrs by UPLC-MS/MS analysis", "type": "ADME, organism-based", "conditions": "in vivo"}, "[32]": {"test": "Tmax in Sprague-Dawley rat at 50 mg/kg, po measured upto 4 hrs by UPLC-MS/MS analysis", "type": "ADME, organism-based", "conditions": "in vivo"}, "[33]": {"test": "Acute toxicity in Kunming male mouse assessed as Uric acid (UA) level at 180 mg/kg, ip measured after 14 days (reference value: 264.8 micromol/L)", "type": "organism-based", "conditions": "in vivo, 336 h, time 14 day"}, "[34]": {"test": "Toxicity in bleomycin-induced pulmonary fibrosis mouse model assessed as body weight change at 10 to 20 mg/kg, ip administered every alternative day for 8 to 21 days after modeling", "type": "organism-based", "conditions": "in vivo, dose lower 10 mg/kg, time lower 8 day, dose upper 20 mg/kg, time upper 21 day"}, "[35]": {"test": "Tmax in Sprague-Dawley rat at 50 mg/kg, ip measured upto 4 hrs by UPLC-MS/MS analysis", "type": "ADME, organism-based", "conditions": "in vivo"}, "NIH3T3 [36]": {"test_system": "NIH3T3", "test": "Inhibition of TGFbeta-induced Smad2 phosphorylation in mouse NIH3T3 cells by Western blot analysis", "type": "functional, cell-based", "conditions": "dose 1-10 µM"}, "[37]": {"test": "Acute toxicity in Kunming male mouse assessed as Lactate dehydrogenase (LDH) level at 180 mg/kg, ip measured after 14 days (reference value: 1776.1 U/L)", "type": "organism-based", "conditions": "in vivo, 336 h, time 14 day"}, "[38]": {"test": "AUC(0 to infinity) in Sprague-Dawley rat at 50 mg/kg, po measured upto 4 hrs by UPLC-MS/MS analysis", "type": "ADME, organism-based", "conditions": "in vivo"}}, "note": "The source made the active and inactive calls. The rule behind the calls is not given here."}
{"molecule": "O=C(/C=C/c1ccc(O)c(O)c1)CCCCc1ccccc1", "values": [{"measurement": "AUMC", "setting": "[1]", "value": 628.01, "unit": "ug/L.hr"}, {"measurement": "AUC(0-t) at 4 h", "setting": "[2]", "value": 99, "unit": "ng·h/mL"}, {"measurement": "Activity", "setting": "[3]", "value": 18.82, "unit": "µmol/L"}, {"measurement": "Activity", "setting": "Mus musculus [4]", "value": "Active"}, {"measurement": "Activity", "setting": "Mus musculus [5]", "value": "Active"}, {"measurement": "Activity", "setting": "[6]", "value": 40.1, "unit": "U/L"}, {"measurement": "MRT last at 4 h", "setting": "[7]", "value": 44.6, "unit": "min"}, {"measurement": "Activity", "setting": "[8]", "value": 3.94, "unit": "µmol/L"}, {"measurement": "CL", "setting": "[9]", "value": 125, "unit": "mL/min/kg"}, {"measurement": "Cmax", "setting": "[10]", "value": 48.9, "unit": "ng/mL"}, {"measurement": "Activity", "setting": "[11]", "value": "Non-toxic"}, {"measurement": "AUMC", "setting": "[12]", "value": 2122.825, "unit": "ug/L.hr"}, {"measurement": "Activity", "setting": "[13]", "value": 125.2, "unit": "U/L"}, {"measurement": "Cz", "setting": "Rattus norvegicus [14]", "value": 0.74, "unit": "µg/L"}, {"measurement": "AUC", "setting": "[15]", "value": 2670.601, "unit": "ng·h/mL"}, {"measurement": "Activity", "setting": "Mus musculus [16]", "value": "Active; Comparable To Nintedanib"}, {"measurement": "MRT last at 4 h", "setting": "[17]", "value": 73.2, "unit": "min"}, {"measurement": "inhibition", "setting": "[18]", "value": "Active"}, {"measurement": "inhibition", "setting": "NIH3T3 [19]", "value": "Dose-dependent-effect; Compound Showed Superior Inhibition Effect Than Nintedanib"}, {"measurement": "Activity", "setting": "Mus musculus [20]", "value": "Active"}, {"measurement": "Activity", "setting": "L929", "value": "Active"}, {"measurement": "Activity", "setting": "[21]", "value": "Non-toxic"}, {"measurement": "inhibition", "setting": "NIH3T3 [22]", "value": "Active"}, {"measurement": "MRT inf", "setting": "[23]", "value": 34.2, "unit": "min"}, {"measurement": "Activity", "setting": "[24]", "value": 33.2, "unit": "g/L"}, {"measurement": "Activity", "setting": "[25]", "value": 16.7, "unit": "µmol/L"}, {"measurement": "AUC(0-t) at 4 h", "setting": "[26]", "value": 1100, "unit": "ng·h/mL"}, {"measurement": "Vz", "setting": "[27]", "value": 9.28, "unit": "L/kg"}, {"measurement": "CL", "setting": "[28]", "value": 305.45, "unit": "mL/min/kg"}, {"measurement": "Activity", "setting": "Rattus norvegicus [29]", "value": 0.84}, {"measurement": "Activity", "setting": "Mus musculus [30]", "value": "Active"}, {"measurement": "AUC(0-t) at 4 h", "setting": "[31]", "value": 2640, "unit": "ng·h/mL"}, {"measurement": "Tmax", "setting": "[32]", "value": 10.2, "unit": "min"}, {"measurement": "Activity", "setting": "[33]", "value": 325.4, "unit": "µmol/L"}, {"measurement": "Activity", "setting": "[34]", "value": "Non-toxic"}, {"measurement": "Tmax", "setting": "[35]", "value": 10.2, "unit": "min"}, {"measurement": "inhibition", "setting": "NIH3T3 [36]", "value": "Dose-dependent-effect; Compound Showed Superior Inhibition Effect Than Nintedanib"}, {"measurement": "Activity", "setting": "[37]", "value": 2486.8, "unit": "U/L"}, {"measurement": "AUC", "setting": "[38]", "value": 102.37, "unit": "ng·h/mL"}]}
